Laboratory results as given in US11390616B2 (BRISTOL-MYERS SQUIBB COMPANY, priority 2015, dated 2022).

molecular target: T1, human APJ receptor (Homo sapiens, UniProt P35414); assay: Intracellular cAMP accumulation assay (APJ hcAMP, HTRF); assay type: cell-based; details: HEK293 cells stably expressing human APJ receptor; inhibition of forskolin-mediated cAMP production; read-out: APJ cAMP Potency range
T1 construct: expressed in transfected cells; host or cells: HEK293
T1 sequence (P35414 1-380): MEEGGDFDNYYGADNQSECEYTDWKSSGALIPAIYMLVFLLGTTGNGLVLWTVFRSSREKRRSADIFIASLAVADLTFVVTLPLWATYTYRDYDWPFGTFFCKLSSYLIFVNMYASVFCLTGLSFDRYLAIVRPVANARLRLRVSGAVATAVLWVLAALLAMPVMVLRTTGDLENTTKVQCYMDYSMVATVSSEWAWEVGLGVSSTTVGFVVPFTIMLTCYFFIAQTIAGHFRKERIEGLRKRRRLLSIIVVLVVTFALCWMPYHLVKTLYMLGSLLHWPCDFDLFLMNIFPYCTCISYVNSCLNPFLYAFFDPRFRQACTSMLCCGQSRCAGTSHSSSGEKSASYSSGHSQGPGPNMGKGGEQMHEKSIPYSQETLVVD
Procedure, shortened: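 HEK293 cells stably expressing the receptor (5,000/well) treated with compound plus […] and 2 μM forskolin for 30 min at room temperature; cAMP by HTRF against a cAMP standard curve. EC50 from variable-slope sigmoidal fit; Ymax as % of (Pyr1)apelin-13 inhibition.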

EC50 | SMILES
10 to 100 nM | Cc1ncccc1-c1ccc(Cc2c(O)n([C@H](c3cc(F)cc(C#N)c3)C(C)C)c(COC(C)C)nc2=O)cc1 [Example 121, 3-fluoro-5-[(1S)-1-(6-hydroxy-5-{[4-(2-methylpyridin-3-yl)phenyl]methyl}-4-oxo-2-[(propan-2-yloxy)methyl]-1,4-dihydropyrimidin-1-yl)-2-methylpropyl]benzonitrile]
0.01 to 10 nM | CCOCc1nc(=O)c(Cc2ccc(-c3ccncc3C)cc2)c(O)n1[C@@H](COC)c1cc(F)cc(F)c1 [Example 122, 1-[(1R)-1-(3,5-difluorophenyl)-2-methoxyethyl]-2-(ethoxymethyl)-6-hydroxy-5-{[4-(3-methylpyridin-4-yl)phenyl]methyl}-1,4-dihydropyrimidin-4-one]
0.01 to 10 nM | CCOCc1nc(=O)c(Cc2ccc(-c3cccnc3C)cc2)c(O)n1[C@@H](COC)c1cc(F)cc(F)c1 [Example 123, 1-[(1R)-1-(3,5-difluorophenyl)-2-methoxyethyl]-2-(ethoxymethyl)-6-hydroxy-5-{[4-(2-methylpyridin-3-yl)phenyl]methyl}-1,4-dihydropyrimidin-4-one]
0.01 to 10 nM | CCOCc1nc(=O)c(Cc2ccc(-c3ccc(F)nc3C)cc2)c(O)n1[C@@H](COC)c1cc(F)cc(F)c1 [Example 124, 1-[(1R)-1-(3,5-difluorophenyl)-2-methoxyethyl]-2-(ethoxymethyl)-5-{[4-(6-fluoro-2-methylpyridin-3-yl)phenyl]methyl}-6-hydroxy-1,4-dihydropyrimidin-4-one]
10 to 100 nM | CCOCc1nc(=O)c(Cc2ccc(-c3ccc(F)nc3)cc2)c(O)n1[C@@H](COC)c1cc(F)cc(F)c1 [Example 125, 1-[(1R)-1-(3,5-difluorophenyl)-2-methoxyethyl]-2-(ethoxymethyl)-5-{[4-(6-fluoropyridin-3-yl)phenyl]methyl}-6-hydroxy-1,4-dihydropyrimidin-4-one]
0.01 to 10 nM | CCOCc1nc(=O)c(Cc2ccc(-c3ccnc(F)c3C)cc2)c(O)n1[C@@H](COC)c1cc(F)cc(F)c1 [Example 126, 1-[(1R)-1-(3,5-difluorophenyl)-2-methoxyethyl]-2-(ethoxymethyl)-5-{[4-(2-fluoro-3-methylpyridin-4-yl)phenyl]methyl}-6-hydroxy-1,4-dihydropyrimidin-4-one]
10 to 100 nM | CCCCc1nc(=O)c(Cc2cccc(-c3ccncc3C)c2)c(O)n1[C@@H](CC)c1cc(F)cc(F)c1 [Example 127, 2-butyl-1-[(1S)-1-(3,5-difluorophenyl)propyl]-6-hydroxy-5-{[3-(3-methylpyridin-4-yl)phenyl]methyl}-1,4-dihydropyrimidin-4-one]
10 to 100 nM | CCCCc1nc(=O)c(Cc2cccc(-c3ccnc(F)c3C)c2)c(O)n1[C@@H](CC)c1cc(F)cc(F)c1 [Example 128, 2-butyl-1-[(1S)-1-(3,5-difluorophenyl)propyl]-5-{[3-(2-fluoro-3-methylpyridin-4-yl)phenyl]methyl}-6-hydroxy-1,4-dihydropyrimidin-4-one]
10 to 100 nM | CCCCc1nc(=O)c(Cc2cccc(-c3cccnc3C)c2)c(O)n1[C@@H](CC)c1cc(F)cc(F)c1 [Example 129, 2-butyl-1-[(1S)-1-(3,5-difluorophenyl)propyl]-6-hydroxy-5-{[3-(2-methylpyridin-3-yl)phenyl]methyl}-1,4-dihydropyrimidin-4-one]
0.01 to 10 nM | CCCCc1nc(=O)c(Cc2cccc(-c3ccc(F)nc3C)c2)c(O)n1[C@@H](CC)c1cc(F)cc(F)c1 [Example 130, 2-butyl-1-[(1S)-1-(3,5-difluorophenyl)propyl]-5-{[3-(6-fluoro-2-methylpyridin-3-yl)phenyl]methyl}-6-hydroxy-1,4-dihydropyrimidin-4-one]
10 to 100 nM | CCCCc1nc(=O)c(Cc2cccc(-c3ccc(F)cc3C(N)=O)c2)c(O)n1[C@@H](CC)c1cc(F)cc(F)c1 [Example 131, 3′-({2-butyl-1-[(1S)-1-(3,5-difluorophenyl)propyl]-6-hydroxy-4-oxo-1,4-dihydropyrimidin-5-yl}methyl)-4-fluoro-[1,1′-biphenyl]-2-carboxamide]
0.01 to 10 nM | CC[C@@H](c1cc(F)cc(F)c1)n1c(-c2ccn(CC)n2)nc(=O)c(Cc2ccc(-c3ccnc(F)c3C)cc2)c1O [Example 132, 1-[(1S)-1-(3,5-difluorophenyl)propyl]-2-(1-ethyl-1H-pyrazol-3-yl)-5-{[4-(2-fluoro-3-methylpyridin-4-yl)phenyl]methyl}-6-hydroxy-1,4-dihydropyrimidin-4-one]
0.01 to 10 nM | CC[C@@H](c1cc(F)cc(F)c1)n1c(-c2ccn(CC)n2)nc(=O)c(Cc2ccc(-c3cccnc3C)cc2)c1O [Example 133, 1-[(1S)-1-(3,5-difluorophenyl)propyl]-2-(1-ethyl-1H-pyrazol-3-yl)-6-hydroxy-5-{[4-(2-methylpyridin-3-yl)phenyl]methyl}-1,4-dihydropyrimidin-4-one]
0.01 to 10 nM | CC[C@@H](c1cc(F)cc(F)c1)n1c(-c2ccn(CC)n2)nc(=O)c(Cc2ccc(-c3ccc(F)nc3C)cc2)c1O [Example 134, 1-[(1S)-1-(3,5-difluorophenyl)propyl]-2-(1-ethyl-1H-pyrazol-3-yl)-5-{[4-(6-fluoro-2-methylpyridin-3-yl)phenyl]methyl}-6-hydroxy-1,4-dihydropyrimidin-4-one]
0.01 to 10 nM | CC[C@@H](c1cc(F)cc(F)c1)n1c(-c2ccn(CC)n2)nc(=O)c(Cc2ccc(-c3ccc(F)nc3)cc2)c1O [Example 135, 1-[(1S)-1-(3,5-difluorophenyl)propyl]-2-(1-ethyl-1H-pyrazol-3-yl)-5-{[4-(6-fluoropyridin-3-yl)phenyl]methyl}-6-hydroxy-1,4-dihydropyrimidin-4-one]
0.01 to 10 nM | CC[C@@H](c1cc(F)cc(F)c1)n1c(-c2ccn(CC)n2)nc(=O)c(Cc2ccc(-c3ccncc3C)cc2)c1O [Example 136, 1-[(1S)-1-(3,5-difluorophenyl)propyl]-2-(1-ethyl-1H-pyrazol-3-yl)-6-hydroxy-5-{[4-(3-methylpyridin-4-yl)phenyl]methyl}-1,4-dihydropyrimidin-4-one]
